Measured values taken from ChEMBL document CHEMBL1201862, “PubChem BioAssay data set” (2004).
Activity calls are given as the source filed them.

How the values were obtained:
[1] = HGIII-sPLA2 enzyme inhibition potency – biochemical, QFRET, IC50, dose response (AID 743457);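 note: green fluorescence rise as the enzyme cleaves BODIPY PC-A2 in liposomes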
[2] = biological target: Glucose-6-phosphate 1-dehydrogenase (Homo sapiens, UniProt P11413); assay: inhibition of Homo sapiens G6PD, dose series – biochemical, fluorescence, selectivity assay for P. falciparum G6PD inhibitor project, dose response (AID 504792); format: functional
Nonstructural protein 1 = Nonstructural protein 1 (Influenza A virus, UniProt Q194T2); format: functional, Influenza A virus (A/California/07/2009(H1N1))
[3] = biological target: Cystic fibrosis transmembrane conductance regulator/Golgi-associated PDZ and coiled-coil motif-containing protein (Homo sapiens, UniProt P13569+Q9HD26); assay: potency against CAL PDZ-peptide interaction – biochemical, fluorescence polarization, Cerulean-tagged CAL PDZ, cherry-picks, dose response (AID 504773)
[4] = biological target: Heat shock protein HSP 90-alpha (Homo sapiens, UniProt P07900); format: functional, organism-based
[5] = biological target: T1, Eukaryotic translation initiation factor 2-alpha kinase 3 (Homo sapiens, UniProt Q9NZJ5); assay: Dose response cell-based high-throughput screening assay to measure PERK inhibition. [Related pubchem assays: 1416 ]; format: functional
[6] = biological target: T1, Eukaryotic translation initiation factor 2-alpha kinase 3; assay: Counterscreen assay for PERK inhibitors: Dose response cell-based high throughput screening assay to measure inhibition of PERK at 6 hours. [Related pubchem assays: 1522, 1416 ]; format: functional
[7] = HEK-293T cell viability reduction – luminescence, B-cell screen hits, cytotoxicity control for BCR NF-kB inhibitor project, dose response (AID 489021); format: functional, cell-based;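 note: HEK-293T cells carrying an NF-kB luciferase reporter; cells exposed to compound for about 14 hours before viability readout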
Cytochrome P450 2D6 = Cytochrome P450 2D6 (Homo sapiens, UniProt P10635);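 note: CYP2D6 member of a cytochrome P450 panel assay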
[8] = biological target: Acyl-homoserine lactone acylase PvdQ (Pseudomonas aeruginosa (strain LESB58), UniProt Q9I194); assay: PvdQ acylase enzyme activity blockers – biochemical, fluorescence, plate reader and imaging, cherry-picks, dose response (AID 493231)
[9] = biological target: Metabotropic glutamate receptor 4 (Rattus norvegicus, UniProt P31423); assay: Modulation of the Metabotropic Glutamate Receptor mGluR4: Rat PAM Potency. [Related pubchem assays (depositor defined):AID2437, AID2807]; format: functional
Bcl-2-like protein 10 = Bcl-2-like protein 10 (Homo sapiens, UniProt Q9HD36); assay: Bcl-B/TR3 peptide binding disruption – biochemical, fluorescence polarization, FITC-TR3 peptide, selectivity assay for Bfl-1 inhibitor project, primary screen (AID 748);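 note: fluorescence polarization from a fluorescein-labelled TR3 peptide binding purified Bcl-B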
Estrogen receptor beta = Estrogen receptor beta (Homo sapiens, UniProt Q92731);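 note: recombinant ER-beta bound to coactivator SRC1 peptide in presence of estradiol agonist; inhibitors block coactivator peptide binding and lower the FRET signal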
[10] = biological target: T2, Kappa-type opioid receptor (Homo sapiens, UniProt P41145); assay: SAR analysis of Antagonists of the Kappa Opioid Receptor (KOR) using an Image-Based Assay - Set 4. [Related pubchem assays (depositor defined):AID1777, AID1785]; format: functional
[11] = biological target: T2, Kappa-type opioid receptor; assay: SAR analysis of small molecule antagonists of the kappa opioid receptor via a luminescent beta-arrestin assay - Set 4. [Related pubchem assays (depositor defined):AID1777, AID1778, AID1785, AID1786, AID1966, AID2133, AID2136, AID2285]; format: functional
[12] = biological target: Delta-type opioid receptor (Homo sapiens, UniProt P41143); assay: SAR Analysis of Antagonists of the DOR Receptor using an Image-Based Assay - Set 3. [Related pubchem assays (depositor defined):AID1777, AID1785]; format: functional;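 note: U2OS cells expressing DOR1 and beta-arrestin GFP stimulated with 100 nM SNC80; imaging of GFP-tagged beta-arrestin moving into spots after receptor activation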
Mu-type opioid receptor = Mu-type opioid receptor (Homo sapiens, UniProt P35372); assay: SAR Analysis of Antagonists of the MOR Receptor using an Image-Based Assay - Set 3. [Related pubchem assays (depositor defined):AID1777, AID1785, AID1786, AID1966, AID2133, AID2136, AID2284, AID2285, AID2420]; format: functional

## COc1ccc2c(c1)c(=Cc1ccc(N(C)C)cc1)c1cc(-c3ccccc3)[n+](C)n12
[1]
  IC50: > 40.6 µM (inactive)
[2]
  IC50: 74.7 µM (inactive)
Nonstructural protein 1
  IC50: 4.56 µM (active)
[3]
  AC50: > 56 µM (inactive)
[4]
  AC50: 3.93 µM (active)

## Cc1ccc(C)c(OCC(=O)Nc2cc(C(=O)O)cc(C(=O)O)c2)c1
[5]
  EC50: > 55.7 µM (not active)
[6]
  EC50: > 55.7 µM (not active)

## CCOc1ccc(-n2c(SCC(=O)Nc3ccc4c(c3)OCCO4)nc3c(c2=O)SCC3)cc1
[7]
  IC50: > 80 µM (inactive)
Cytochrome P450 2D6
  AC50: 8.91 µM (inconclusive)

## OC(c1cccc(Cl)c1)c1nccc2ccccc12 (configuration not stated)
[8]
  AC50: 7.66 µM (active)

## O=C(Nc1ccc(N2C(=O)CCC2=O)c(Cl)c1)c1ccccn1
[9]
  EC50: 6.89 µM (active)

## c1coc(-c2nn3c(-c4ccco4)nnc3s2)c1
Bcl-2-like protein 10
  IC50: 86.5 µM (inactive)
Estrogen receptor beta
  IC50: 24 µM (active)

## CCC(C)(C)c1ccc(S(=O)(=O)NCc2ccc(C(=O)NCCN(Cc3ccccc3)C(C)C)cc2)cc1
[10]
  IC50: 0.57 µM (active)
[11]
  IC50: 1.19 µM (active)
[12]
  IC50: > 32 µM (inactive)
Mu-type opioid receptor
  IC50: > 32 µM (inactive)
